Measurements from patent US6663881B2 (priority 1993, dated 2003).

Columns and labels:
[1] = test system: Vascular smooth muscle (BO54) cells; format: cell-based, baboon
[2] = test system: Vascular smooth muscle (BO54) cells; format: cell-based, baboon; remark: listed apart in the source
[3] = test system: Vascular smooth muscle cells
[4] = test system: balloon traumatized left carotid artery; details: rat, in vivo
[5] = test system: balloon traumatized left carotid artery; test: Periadventitial delivery of taxol crystals in pluronic gel, balloon traumatized rat carotid artery; format: in vivo, rats
Protocol: To further evaluate the efficacy of crystalline taxol to inhibit neointimal formation in rats, four groups of 5-6 adult male rats underwent balloon trauma of the left carotid artery followed immediately by periadventitial delivery of 1, 0.1, 0.01 or 0 mg of taxol crystals in 500 mg of a pluronic polymer in gel matrix. Fourteen days later, the rats were sacrificed, serum was collected and their carotid arteries were processed for histologic and morphometric analysis.

[6] = Human liver slices distribution and metabolism study (HPLC); format: in vitro ADME
Protocol: ^3H-cytochalasin B at a dose of 1.5 or 8 μg/ml was mixed with viable or non-viable human liver slices and media, and the amount of ^3H-cytochalasin B in media or tissue assessed by HPLC (Tables 8 and 9).

[7] = Stability and metabolism in saline, human plasma and human whole blood (HPLC); format: in vitro ADME; details: 20 hours at 37° C.
Protocol: To determine the metabolism of ^3H-cytochalasin B in human blood, ^3H-cytochalasin B (8 μg/ml) was dissolved in saline; 1:1 dilution of saline and human plasma; or 1:1 dilution of saline and human whole blood.

[8] = MTT activity in human liver slices after 24 hour exposure; format: cell-based
Protocol: The cytotoxity of ^3H-cytochalasin B and its subsequent metabolites was also assessed by evaluating dose dependent changes in mitochondrial function by monitoring 3-[4, 5-dimethylthiazol-2yl]-2, 5-diphenyltetrazolium bromide (MTT) activity following a 24 hour exposure of human liver slices to the test agent (Table 10).

[9] = test system: balloon traumatized swine femoral arteries; test: Tissue distribution of crystalline 3H-cytochalasin B after local delivery; design: species or system Yorkshire crossbred swine; details: in vivo
Protocol: The in vivo tissue distribution of cytochalasin B administered in crystalline form was evaluated in balloon traumatized swine femoral arteries after local delivery. A femoral artery of a Yorkshire crossbred swine was balloon traumatized by overinflation and rotation of a Vascu-Flo™ Silicone embolectomy catheter. Balloon trauma was immediately followed by intravascular delivery of 10 μg/ml ^3H-cytochalasin B crystals (Sigma Chemical Co., St. Louis, Mo.) in saline (saturated) for three minutes under 1 atm of pressure. Blood flow was resumed in the artery for five minutes prior to sacrifice of the animal.

[10] = Biodistribution of 3H-cytochalasin B i.v. (radioactivity); format: in vivo, BALB/c mice
Protocol: ^3H-cytochalasin B (2 μg; 30 μCi/μg) was injected i.v. into BALB/c mice having urinary bladders that had been externally ligated. Animals were sacrificed at 15 minutes, 30 minutes, 2 hours or 16 hours post-injection. Organs were removed, blotted, weighed, air dried and assayed for radioactivity. Fifty −73% of the total injected dose was accounted for in the tissues sampled (blood, heart, brain, muscle, bone, lung, liver, spleen, stomach, kidney, intestines, and urinary bladder). Clearance of ^3H-cytochalasin B from the blood was extremely rapid with less than 1% of the injected dose in circulation by 15 minutes.

[11] = 1.5 μg/ml, Media/viable tissue, 1 h
[12] = 1.5 μg/ml, Media/viable tissue, 1 h at 37° C.
[13] = 1.5 μg/ml, Media/viable tissue, 4 h
[14] = 8 μg/ml, Media/boiled tissue, 4 h
[15] = 8 μg/ml, Media/boiled tissue, 24 h

Compound: CC(=O)O[C@@H]1/C=C\[C@@](C)(O)C(=O)[C@@H](C)C/C=C\[C@H]2[C@H](O)C(C)=C(C)[C@H]3C(Cc4ccccc4)NC(=O)[C@]132 (stereo partly shown) [cytochalasin C]
- MED, DNA synthesis assay [1]: 0.01 µg/mL

Compound: O=[N+]([O-])OCC(CO[N+](=O)[O-])O[N+](=O)[O-] [nitroglycerin]
- DNA synthesis inhibition compared with protein synthesis inhibition [1]: to a greater extent than they inhibited protein synthesis

Compound: CN[C@@H]1C[C@H]2O[C@@](C)([C@@H]1OC)n1c3ccccc3c3c4c(c5c6ccccc6n2c5c31)C(=O)NC4 [staurosporin]
- minimum effective dose (MED), protein synthesis assay [2]: 100 ng/mL
- minimum effective dose (MED), DNA assay [1]: 1 ng/mL
- cytotoxicity grade at in vitro effective dosage [3]: 2

Compound: Cc1ccc(C(=O)Nc2ccc(S(=O)(=O)O)c3cc(S(=O)(=O)O)cc(S(=O)(=O)O)c23)cc1NC(=O)c1cccc(NC(=O)Nc2cccc(C(=O)Nc3cc(C(=O)Nc4ccc(S(=O)(=O)O)c5cc(S(=O)(=O)O)cc(S(=O)(=O)O)c45)ccc3C)c2)c1 [suramin]
- DNA synthesis inhibition compared with protein synthesis inhibition [1]: to a greater extent than they inhibited protein synthesis

Compound: CC(=O)O[C@H]1C(=O)[C@@]2(C)[C@H]([C@H](OC(=O)c3ccccc3)[C@]3(O)C[C@H](OC(=O)[C@H](O)[C@@H](NC(=O)c4ccccc4)c4ccccc4)C(C)=C1C3(C)C)[C@]1(OC(C)=O)CO[C@@H]1C[C@@H]2O [taxol]
- morphometry vs untreated controls [4]: statistically significantly larger luminal areas and no neointimal proliferation
- post-surgical weight gain [4]: delay in post-surgical weight gain
- neointimal area and neointimal/medial ratio vs control ([5]; 0.01 mg): reduction in their neointimal area and neointimal/medial ratio
- toxicity ([5]; 0.01 mg): no
- neointimal area and neointimal/medial ratio vs control ([5]; 0.1 mg): reduction in their neointimal area and neointimal/medial ratio
- toxicity ([5]; 0.1 mg): minimal
- toxicity ([5]; 1.0 mg): limited

Compound: ^3H-cytochalasin B
- total reactivity in the tissue [6]: less than 20%
- total reactivity present in the media [6]: greater than 80%
- % Metabolized of Extractable Activity [6, 11]: 43.0%
- % Non extractable Activity [6, 11]: 0.5%
- % Activity in Media [6, 12]: 84%
- % Activity in Tissue [6, 12]: 16%
- % Activity in Media [6, 13]: 84%
- % Activity in Tissue [6, 13]: 16%
- % Metabolized of Extractable Activity [6, 13]: 77.0%
- % Metabolized of Extractable Activity ([6]; 1.5 μg/ml, Media/viable tissue, 24 h): 98.7%
- % Metabolized of Extractable Activity ([6]; 8 μg/ml, Media Only, 1 h): 5%
- % Metabolized of Extractable Activity ([6]; 8 μg/ml, Media Only, 24 h): 5%
- % Non extractable Activity ([6]; 8 μg/ml, Media/boiled tissue, 1 h): 0.5%
- % Extractable Activity [6, 14]: 99.0%
- % Metabolized of Extractable Activity [6, 14]: 5%
- % Non extractable Activity [6, 14]: 1%
- % Activity in Media [6, 15]: 87%
- % Activity in Tissue [6, 15]: 13%
- % Metabolized of Extractable Activity [6, 15]: 5%
- % Non extractable Activity [6, 15]: 1.3%
- % Metabolized of Extractable Activity ([6]; 8 μg/ml, Media/viable tissue, 1 h): 24.2%
- % Metabolized of Extractable Activity ([6]; 8 μg/ml, Media/viable tissue, 4 h): 59.4%
- % Metabolized of Extractable Activity ([6]; 8 μg/ml, Media/viable tissue, 24 h): 98.0%
- metabolism ([7]; 8 μg/ml in 1:1 saline and human plasma): not metabolized
- metabolism ([7]; 8 μg/ml in 1:1 saline and human whole blood): metabolized by human whole blood
- metabolism ([7]; 8 μg/ml in saline): not metabolized
- cytotoxicity of agent or its metabolites [8]: not cytotoxic
- tissue localization [9]: localized predominantly to the adventitia
- injected dose in circulation ([10]; by 15 minutes): less than 1%
- tissues with significant retention of 3H activity ([10]; mouse, in vivo): Only liver, skeletal muscle and intestines showed significant retention
